# Results taken from ChEMBL document CHEMBL3045726, “Fungicidal Activity of Pyrazolylpyrimidines” (1990).
# Columns and labels:
# Type in all cases: functional
# Pyricularia oryzae [1] = test: Fungicidal activity against Magnaporthe oryzae in rice seedlings assessed as control of rice blast at 500 ppm by preventive foliar treatment
# Pyricularia oryzae [2] = test: Fungicidal activity against Magnaporthe oryzae by agar dilution method
# Nakataea oryzae = test: Fungicidal activity against Magnaporthe salvinii by agar dilution method
# Pyricularia oryzae [3] = test: Fungicidal activity against Magnaporthe oryzae in rice seedlings assessed as control of rice blast at 500 ppm by curative foliar treatment
# Podosphaera fuliginea [4] = test: Fungicidal activity against Podosphaera fuliginea in cucumber assessed as control of cucumber powdery mildew at 62.5 ppm measured after 7 days of inoculation
# Podosphaera fuliginea [5] = test: Fungicidal activity against Podosphaera fuliginea in cucumber assessed as control of cucumber powdery mildew at 125 ppm measured after 7 days of inoculation
# Podosphaera fuliginea [6] = test: Fungicidal activity against Podosphaera fuliginea in cucumber assessed as control of cucumber powdery mildew at 125 ppm measured after 10 days of inoculation
# Podosphaera fuliginea [7] = test: Fungicidal activity against Podosphaera fuliginea in cucumber assessed as control of cucumber powdery mildew at 62.5 ppm measured after 10 days of inoculation
SMILES,Activity (Pyricularia oryzae [1]),MIC (Pyricularia oryzae [2]),MIC (Nakataea oryzae),Activity (Pyricularia oryzae [3]),Activity (Podosphaera fuliginea [4]),Activity (Podosphaera fuliginea [5]),Activity (Podosphaera fuliginea [6]),Activity (Podosphaera fuliginea [7])
CCNc1nc(NCC)nc(-n2nc(C)cc2C)n1,100%,50 µg/mL,25 µg/mL,81%,,,,
Cc1cc(C)n(C2=NS(=O)(=O)c3ccccc32)n1,31%,> 100 µg/mL,> 100 µg/mL,0%,,,,
Cc1cc(C)n(-c2nc3ccccc3s2)n1,40%,> 100 µg/mL,> 100 µg/mL,31%,,,,
Cc1cc(C)n(-c2nc3ccccc3c(=O)[nH]2)n1,40%,0.78 µg/mL,,85%,,,,
Cc1cc(C)n(-c2ccc(O)nn2)n1,29%,100 µg/mL,> 100 µg/mL,0%,,,,
Cc1cc(C)n(-c2ccc(Cl)nn2)n1,31%,> 100 µg/mL,> 100 µg/mL,31%,,,,
Cc1cc(C)n(-c2ncncn2)n1,59%,> 100 µg/mL,> 100 µg/mL,50%,,,,
Cc1cc(C)n(-c2nc(O)nc(O)n2)n1,,> 100 µg/mL,> 100 µg/mL,31%,,,,
Cc1cc(C)n(-c2nc(Cl)nc(Cl)n2)n1,100%,> 100 µg/mL,> 100 µg/mL,100%,,,,
Cc1cc(C)n(-c2nc3ccccc3[nH]2)n1,,100 µg/mL,25 µg/mL,0%,,,,
Cc1cc(C)n(-c2nc(C)c(C)s2)n1,0%,> 100 µg/mL,> 100 µg/mL,15%,,,,
CCCCCc1c(C)nc(-n2nc(C)cc2C)nc1O,81%,6.25 µg/mL,0.2 µg/mL,94%,100%,100%,100%,100%
CCCCCCc1c(C)nc(-n2nc(C)cc2C)nc1O,81%,6.25 µg/mL,6.25 µg/mL,89%,99.4%,100%,100%,98.4%
Cc1nc(-n2nc(C)c(Br)c2C)nc(O)c1Br,40%,50 µg/mL,25 µg/mL,31%,,,,
Cc1cc(C)nc(-n2ccnc2)n1,51%,> 100 µg/mL,> 100 µg/mL,0%,,,,
Cc1cc(C)nc(-n2ccnc2C)n1,59%,> 100 µg/mL,> 100 µg/mL,40%,,,,
Cc1cc(C)nc(-n2cc(C)nc2C)n1,59%,> 100 µg/mL,> 100 µg/mL,0%,,,,
Cc1cc(C)nc(-n2cncn2)n1,31%,> 100 µg/mL,> 100 µg/mL,0%,,,,
Cc1cc(C)nc(-n2nc(C)nc2C)n1,81%,> 100 µg/mL,> 100 µg/mL,0%,,,,
Cc1cc(C)n(-c2ccc3ccccc3n2)n1,31%,100 µg/mL,25 µg/mL,60%,,,,
Cc1cc(C)n(-c2cc(C)c3ccccc3n2)n1,81%,> 100 µg/mL,> 100 µg/mL,69%,,,,
Cc1cc(C)nc(-n2nc(C(F)(F)F)cc2C(F)(F)F)n1,51%,> 100 µg/mL,> 100 µg/mL,31%,,,,

SMILES,Activity (Pyricularia oryzae [1]),MIC (Pyricularia oryzae [2]),MIC (Nakataea oryzae),Activity (Pyricularia oryzae [3]),Activity (Podosphaera fuliginea [4]),Activity (Podosphaera fuliginea [5]),Activity (Podosphaera fuliginea [6]),Activity (Podosphaera fuliginea [7])
Cc1cc(C)nc(-n2nc(C(F)(F)F)cc2-c2ccccc2)n1,74%,100 µg/mL,> 100 µg/mL,53%,,,,
CCOC(=O)c1cc(C)nn1-c1nc(C)cc(C)n1,0%,> 100 µg/mL,> 100 µg/mL,0%,,,,
CCOC(=O)c1c(C)nn(-c2nc(C)cc(C)n2)c1C,69%,> 100 µg/mL,> 100 µg/mL,85%,,,,
CC(=O)c1c(C)nn(-c2nc(C)cc(C)n2)c1C,40%,> 100 µg/mL,> 100 µg/mL,84%,,,,
Cc1cc(C)nc(-n2nc(C)c(Cl)c2C)n1,29%,50 µg/mL,50 µg/mL,99%,,,,
Cc1cc(C)nc(-n2nc(C)c(Br)c2C)n1,65%,50 µg/mL,50 µg/mL,96%,,,,
Cc1cc(C)n(-c2nc(C)c(Cl)c(C)n2)n1,94%,50 µg/mL,25 µg/mL,100%,,,,
Cc1cc(C)nc(-n2ccc(C)n2)n1,69%,> 100 µg/mL,> 100 µg/mL,69%,,,,
Cc1cc(C)nc(-n2cccn2)n1,41%,> 100 µg/mL,> 100 µg/mL,40%,,,,
COc1cc(C)nn1-c1nc(C)cc(C)n1,40%,> 100 µg/mL,> 100 µg/mL,40%,,,,
COc1cc(C)nc(-n2nc(C)cc2C)n1,81%,50 µg/mL,100 µg/mL,96%,,,,
C=CCc1c(C)nn(-c2nc(C)cc(C)n2)c1C,85%,100 µg/mL,25 µg/mL,99%,,,,
Cc1cc(C)n(-c2nc(C)c(C)c(C)n2)n1,65%,50 µg/mL,100 µg/mL,78%,,,,
Cc1cc(C)nc(-n2nc(C)cc2C)n1,99%,> 100 µg/mL,100 µg/mL,100%,,,,
Cc1ccnc(-n2nc(C)cc2C)n1,78%,> 100 µg/mL,> 100 µg/mL,96%,,,,
Cc1cc(C)n(-c2ncccn2)n1,78%,> 100 µg/mL,> 100 µg/mL,73%,,,,
Cc1cc(C)n(-c2nc(C)c3ccccc3n2)n1,71%,25 µg/mL,6.25 µg/mL,98%,,,,
Cc1cc(C)n(-c2ncc3ccccc3n2)n1,84%,25 µg/mL,25 µg/mL,99%,,,,
CCc1cc(C)n(-c2nc(C)cc(C)n2)n1,31%,50 µg/mL,50 µg/mL,100%,,,,
CCc1cc(C)n(-c2nccc(C)n2)n1,84%,25 µg/mL,50 µg/mL,98%,,,,
CCc1cc(C)n(-c2ncccn2)n1,74%,> 100 µg/mL,> 100 µg/mL,93%,,,,
CCc1cc(CC)n(-c2nc(C)cc(C)n2)n1,40%,25 µg/mL,25 µg/mL,100%,,,,

SMILES,Activity (Pyricularia oryzae [1]),MIC (Pyricularia oryzae [2]),MIC (Nakataea oryzae),Activity (Pyricularia oryzae [3]),Activity (Podosphaera fuliginea [4]),Activity (Podosphaera fuliginea [5]),Activity (Podosphaera fuliginea [6]),Activity (Podosphaera fuliginea [7])
CCc1cc(CC)n(-c2nccc(C)n2)n1,59%,25 µg/mL,25 µg/mL,100%,,,,
CCc1cc(CC)n(-c2ncccn2)n1,90%,100 µg/mL,> 100 µg/mL,100%,,,,
CCCc1cc(CCC)n(-c2nc(C)cc(C)n2)n1,40%,12.5 µg/mL,6.25 µg/mL,100%,,,,
Cc1cc(C)nc(-n2nc(C(C)C)cc2C(C)C)n1,31%,6.25 µg/mL,6.25 µg/mL,100%,,,,
Cc1cc(C)nc(-n2nc(C(C)(C)C)cc2C(C)(C)C)n1,69%,> 100 µg/mL,> 100 µg/mL,89%,,,,
Cc1cc(C)nc(-n2nc(C)cc2-c2ccccc2)n1,67%,100 µg/mL,,27%,,,,
Cc1cc(C)nc(-n2nc(-c3ccccc3)cc2-c2ccccc2)n1,31%,> 100 µg/mL,> 100 µg/mL,40%,,,,
Cc1cc(C)nc(-n2nc(C)cc2C(F)(F)F)n1,53%,> 100 µg/mL,> 100 µg/mL,0%,,,,
Cc1cc(C)nc(-n2ncc3ccccc32)n1,31%,50 µg/mL,25 µg/mL,96%,,,,
Cc1cc(C)nc(-n2nc3c(c2C)CCCC3)n1,84%,12.5 µg/mL,12.5 µg/mL,99%,,,,
Cc1nc(-n2nc(C)c(C)c2C)nc(C)c1C,81%,50 µg/mL,50 µg/mL,99%,,,,
Cc1cc(C)nc(-n2nc(C)c(C)c2C)n1,81%,100 µg/mL,50 µg/mL,99%,,,,
Cc1ccnc(-n2nc(C)c(C)c2C)n1,63%,50 µg/mL,50 µg/mL,100%,,,,
CCc1c(C)nn(-c2nc(C)cc(C)n2)c1C,100%,50 µg/mL,50 µg/mL,100%,,,,
CCCc1c(C)nn(-c2nc(C)cc(C)n2)c1C,90%,25 µg/mL,12.5 µg/mL,98%,,,,
Cc1cc(C)nc(-n2nc(C)c(CC(C)C)c2C)n1,90%,6.25 µg/mL,6.25 µg/mL,100%,,,,
Cc1cc(C)nc(-n2[nH]c(C)cc2=O)n1,31%,> 100 µg/mL,> 100 µg/mL,0%,,,,
CCCCc1c(C)nc(N(C)C)nc1O [DIMETHIRIMOL],,,,,100%,100%,100%,100%
COc1cc(C)nc(-n2nc(C)cc2OC)n1 [EPIRIZOLE],,> 100 µg/mL,> 100 µg/mL,89%,,,,
CCCCc1c(C)nc(NCC)[nH]c1=O [ETHIRIMOL],,,,,100%,100%,100%,100%
